{
  "source": "patent US11920135B2",
  "about": "“Methods of treating VEGF/VEGFR resistant prostate, renal, or colorectal cancers using combination therapies” (University of Massachusetts, priority 2016, dated 2024)",
  "key": {"[1]": {"system": "PC3 and C4-2 sensitive and resistant cells", "experiment": "Prostatosphere formation", "assay_type": "cell-based", "settings": "resistant cells (PC3-R); EHT1864 20 μM", "procedure": "FIG. 2B. Resistant and sensitive populations were analyzed for prostatosphere formation in the presence of either a NRP inhibitory peptide (c-furSEMA) or control peptide (c-SEMA).\nFIG. 3H. PC3-R cells were stimulated with VEGF in the presence or absence of a Rac1 inhibitor (EHT1864; 20 μM) and the effect on prostatosphere formation was measured.\nFIG. 6I. Prostatosphere formation by VEGF^high cells in the presence or absence of EHT1864 was quantified."}, "[2]": {"system": "PTENpc-/- prostate tumors", "experiment": "Pten pc-/- transgenic mouse model of prostate cancer", "assay_type": "in vivo", "settings": "for number of LSC cells: from 6 weeks of age", "procedure": "FIG. 4C. Six-week old Pten^pc−/− mice were injected (i.p.) with either mcr84 (10 mg/kg) or EHT1864 (10 mg/kg) twice weekly for three weeks. The GU tract was harvested and total weight was measured. The prostate glands were separated and combined weight of all the lobes was measured. The prostate glands were digested and LSC cells (Lin^−Sca^+CD49f^high) were isolated by FACS.\nFIG. 4D. Six-week old Pten^pc−/− mice were injected (i.p.) with either mcr84 (10 mg/kg) or EHT1864 (10 mg/kg) twice weekly for three weeks. The GU tract was harvested and total weight was measured. The prostate glands were separated and combined weight of all the lobes was measured.\nFIG. 4E. Hematoxylin and eosin (H&E) staining of prostate tumors from Pten^pc−/− mice described in FIG. 4C, and the percentage of prostate glands showing either PIN or well-differentiated adenocarcinoma (AdCa). Scale bar is 100 μm.\nFIG. 4F. TUNEL staining of tumor sections of prostate tumors from Pten^pc−/− mice described in FIG. 4C to detect apoptosis. Scale bar is 100 μm.\nFIG. 7C. Six-week old Pten^pc−/− mice were injected (i.p.) with either mcr84 (10 mg/kg) twice weekly for three weeks. The prostate glands were harvested and immunostained using a myc antibody.\nTo pursue this hypothesis further, PTEN^pc−/− transgenic mice were treated with the Rac1 inhibitor (EHT1864), mcr84 or both at the start of puberty (6 weeks). […] We also compared the impact of mono- and combined therapy on PTEN^pc−/− tumors by calculating the weights of the isolated GU tracts and prostate lobes. […] Moreover, a mass of cells in the lumen of the gland was evident in mice that received the combined treatment. […] These tumor groups were also stained with CD31. Six-week old Ptenpc−/− mice were injected (i.p.) with either mcr84 (10 mg/kg) or EHT1864 (10 mg/kg) twice weekly for three weeks. The prostate glands were harvested and angiogenesis was analyzed using CD31 staining."}, "[3]": {"system": "Lin-Sca+CD49fhigh cells (LSC cells)", "experiment": "Freshly sorted LSC cells from PTENpc-/- mice: proliferation, prostatosphere formation, qPCR", "assay_type": "cell-based, mouse", "settings": "Rac1 inhibitor EHT1864 (FIG. 3I)", "procedure": "FIG. 3I. Freshly sorted Lin^−Sca^+CD49f^high cells (LSC cells) from PTEN^pc−/− mice were used to measure the effect of EHT1864, mcr84 or sunitinib on cell proliferation and prostatosphere formation.\nFIG. 3J. Freshly sorted LSC cells from PTEN^pc−/− mice were treated with EHT1864 (20 μM) and expression of genes associated with stem cells and VEGF signaling was quantified by qPCR.\n(§1) Cell-based assays: The chemosensitivity of prostate cancer cells was determined using a standard 3-(4,5-dimethylthiazol-2-yl)-2,5-diphenyltetrazolium bromide (MTT) cytotoxicity assay. The assay was performed 72 hours after treatment. FACS was used to isolate cells based on their surface expression of CD44, CD24, and the α6 and β4 integrins. The detailed procedure for isolating LSC cells from PTEN^pc−/− mice using lineage markers (CD31, CD45, and Ter119), Sca-1, and CD49f is described, e.g., in Mulholland, D. J., Xin, L., Morim, A., Lawson, D., Witte, O., and Wu, H. 2009. Lin−Sca−1+CD49fhigh stem/progenitors are tumor-initiating cells in the Pten-null prostate cancer model. Cancer Res 69:8555-8562; Lawson, D. A., Xin, L., Lukacs, R. U., Cheng, D., and Witte, O. N. 2007. Isolation and functional characterization of murine prostate stem cells. Proc Natl Acad Sci USA 104:181-186."}, "[4]": {"system": "PC3 and C4-2 sensitive and resistant cells", "experiment": "Colony formation and MTT viability of sensitive and resistant cell lines", "assay_type": "cell-based", "procedure": "FIG. 1F. PC3 and C4-2 resistant and sensitive cell lines were analyzed for colony formation in the presence or absence of 10 μM Pazopanib.\nFIG. 2C. Resistant and sensitive populations were analyzed for sensitivity to bevacuzimab (1 mg/ml) in the presence of either a NRP inhibitory peptide (c-furSEMA) or control peptide (c-SEMA).\nFIG. 8F. PC3 and C4-2 resistant and sensitive cell lines were cultured in the presence of pazopanib (10 μM) or DMSO for 72 hours and cell viability is analyzed using the MTT assay.\nFIG. 9D. PC3 and C4-2 resistant cells (10^3 cells per 60 mm plate) were cultured in the presence of either c-SEMA or c-furSEMA (1 μM), control IgG or NRP2 inhibitory antibody (1 μg/ml), or their respective controls for 10 days and colonies were stained with crystal violet. Colonies with more than 50 cells were counted.\nas §1\nThe resistant cell lines generated are referred to as PC3-R and C4-2R. As controls, we also exposed these cell lines to control IgG (hIgG) and DMSO and refer to these as sensitive cell lines (PC3-S and C4-2S) (FIGS. 1D-1E)."}, "[5]": {"system": "VEGFhigh and VEGFlow PC3 cells", "experiment": "Proliferation of VEGFhigh and VEGFlow cells", "assay_type": "cell-based", "settings": "bevacizumab 1 mg/ml, sunitinib 20 μM, 72 hours", "procedure": "FIG. 6E. VEGF^high and VEGF^low cells were incubated with bevacuzimab (1 mg/ml) or sunitinib (20 μM) for 72 hours and their proliferation was assayed."}, "[6]": {"system": "human prostate tumor cells", "experiment": "Sensitivity to bevacizumab of subpopulations sorted from freshly harvested prostate tumors (cell survival)", "assay_type": "cell-based", "procedure": "FIG. 1B. Four subpopulations isolated based on expression of CD44 and CD24 were analyzed for their sensitivity to bevacuzimab. The percentage of live cells in three different areas was determined and mean is plotted as cell survival.\nFIG. 1C. Cells from two human freshly harvested prostate tumors were sorted using ITGA6 and ITGB4 antibodies. The four subpopulations isolated based on expression of ITGA6 and ITGB4 were analyzed for their ability to form prostatospheres and sensitivity to bevacuzimab. The percentage of live cells in three different areas was determined and mean is plotted as cell survival.\nIsolation of human prostate tumor cells and laser capture microscopy (LCM): Human prostate tumor tissue was obtained from UMASS Cancer Center Tissue Bank in compliance with the Institutional Review Board of the University of Massachusetts Medical School. The discarded but freshly resected, prostate tumors were digested with collagenase at 37° C. and epithelial cells were isolated using an EpCaM antibody. Frozen sections were microdissected by laser capture microscopy (Arcturus PixCell 2) to obtain pure populations of tumor cells of defined Gleason grades. […] Quantitative real-time PCR was done using the Taqman assay kit (Applied Biosystems). […]"}, "[7]": {"system": "androgen-independent prostate cancer", "settings": "bevacizumab monotherapy; cited from earlier work"}, "PC3-R xenograft tumors": {"system": "PC3-R xenograft tumors", "experiment": "PC3-R xenografts in NSG mice", "assay_type": "in vivo, mouse", "procedure": "FIGS. 4A-4F. Rac1 inhibition improves sensitivity to VEGF/VEGFR-targeted therapy. FIG. 4A. Tumor volume of mice that were treated with either control IgG or bevacuzimab. PC3-R cells were transfected with Rac1 shRNAs and these cells were implanted in NSG mice. Once tumors reached approximately 100 mm^3 in volume, mice were treated with either control IgG or bevacuzimab (10 mg/kg, intraperitoneally, twice weekly). Tumor volume was measured every third day.\nFIG. 4B. Terminal deoxynucleotidyl transferase dUTP nick end labeling (TUNEL) for control and treated PC3-R xenograft tumors that were harvested. Apoptosis was analyzed using TUNEL staining. Scale bar is 10 μm."}, "NRP1": {"molecular_target": "NRP1 (Homo sapiens, UniProt O14786)", "experiment": "Ability to block VEGF-A binding to NRP", "settings": "FIG. 9H", "excerpt": "FIG. 9H. Ability of VEGF antibodies to block VEGF-A binding to NRP."}, "ERK": {"system": "ERK", "experiment": "ERK activation by immunoblotting with phospho-specific antibody", "assay_type": "cell-based", "procedure": "FIG. 2D. PC3-S cells were serum-deprived overnight and stimulated with VEGF (50 ng/ml) for 30 minutes in the presence or absence of bevacuzimab (5 mg/ml). The activation of ERK was analyzed by immunoblotting using a phospho-specific antibody.\nFIG. 2F. Sensitive and resistant C4-2 cell lines were serum-deprived overnight and stimulated with VEGF (50 ng/ml) for 30 minutes in the presence of bevacuzimab (5 mg/ml). The activation of ERK and AKT was analyzed by immunoblotting using phospho-specific antibodies.\nFIG. 2G. Sensitive and resistant PC3 cell lines were serum-deprived overnight and stimulated with VEGF (50 ng/ml) for 30 minutes in the presence of bevacuzimab (5 mg/ml). The activation of ERK and AKT was analyzed by immunoblotting using phospho-specific antibodies.\nFIG. 6F. VEGF^high and VEGF^low cells were serum-deprived overnight and stimulated with VEGF (50 ng/ml) for 30 minutes in the presence or absence of bevacuzimab (5 mg/ml). The activation of ERK was analyzed by immunoblotting using a phospho-specific antibody."}, "[8]": {"settings": "10 mg/kg i.p. twice weekly for three weeks"}, "[9]": {"settings": "Rac1-depleted (shRNA) PC3-R xenografts plus bevacizumab"}},
  "data": [
    {"compound": "O=c1cc(CN2CCOCC2)occ1OCCCCCSc1ccnc2cc(C(F)(F)F)ccc12", "note": "[EHT1864]", "values": [
      {"measurement": "number of prostatospheres", "setting": "[1]", "value": "reduced the number of prostatospheres"},
      {"measurement": "angiogenesis (CD31 staining)", "setting": "[2]; [8]", "value": "No significant difference in staining"},
      {"measurement": "number of LSC cells", "setting": "[2]; [8]", "value": "reduced the number of LSC cells significantly"},
      {"measurement": "number of LSC cells", "setting": "[2]; 10 mg/kg i.p. twice weekly for three weeks, listed as RACi", "value": "significantly reduced"},
      {"measurement": "pathological examination of prostate tumors (PIN or adenocarcinoma)", "setting": "[2]; H&E staining", "value": "progressed to well-differentiated adenocarcinomas"},
      {"measurement": "sensitivity of LSC cells to mcr84 and sunitinib", "setting": "[3]", "value": "increased the sensitivity of LSC cells"}
    ]},
    {"compound": "bevacizumab", "values": [
      {"measurement": "sensitivity of resistant cells after down-regulation of P-Rex1", "setting": "[4]; PC3-R cells with P-Rex1 shRNA, bevacizumab 1 mg/ml, sunitinib 20 μM", "value": "increased their sensitivity"},
      {"measurement": "sensitivity to bevacizumab after down-regulation of NRP2 or NRP1", "setting": "[4]; PC3-R cells, shRNA", "value": "increased sensitivity"},
      {"measurement": "ability of the resistant cell lines to form colonies or survive", "setting": "[4]; PC3-R, C4-2R, bevacizumab 1 mg/ml, sunitinib 20 μM, 10 days colonies, 72 hours MTT", "value": "Neither bevacizumab nor sunitinib inhibited"},
      {"measurement": "resistance to inhibition of viability and prostatosphere formation after expression of constitutively active MEK", "setting": "[4]; sensitive cells", "value": "increased their resistance"},
      {"measurement": "resistance to bevacizumab after ectopic expression of NRP2", "setting": "[4]; sensitive cells, in the presence of VEGF", "value": "induces resistance"},
      {"measurement": "resistance of VEGFhigh cells compared to VEGFlow cells (proliferation)", "setting": "[5]", "value": "more resistant"},
      {"measurement": "resistance to bevacizumab treatment (cell survival)", "setting": "[6]; CD44+CD24- (P1) subpopulation versus other subpopulations", "value": "the only subpopulation that exhibited resistance"},
      {"measurement": "resistance to bevacizumab treatment (cell survival)", "setting": "[6]; high CD49f population compared to low CD49f population", "value": "exhibited resistance"},
      {"measurement": "patients exhibiting a decline in PSA", "setting": "[7]", "value": 27, "unit": "%"},
      {"measurement": "response based on RECIST criteria", "setting": "[7]", "value": "no response noted"},
      {"measurement": "apoptosis in residual tumors (TUNEL)", "setting": "PC3-R xenograft tumors; [9]", "value": "contained mostly apoptotic cells"},
      {"measurement": "tumor volume", "setting": "PC3-R xenograft tumors; [9]", "value": "significantly better decrease in tumor volume"},
      {"measurement": "tumor growth", "setting": "PC3-R xenograft tumors; control PC3-R xenografts, bevacizumab alone, 10 mg/kg i.p. twice weekly", "value": "no significant effect on tumor growth"},
      {"measurement": "blocking of the binding of VEGF-A to NRP1", "setting": "NRP1", "value": "Neither mcr84 nor bevacizumab blocked"},
      {"measurement": "basal ERK activation", "setting": "ERK; VEGFhigh cells", "value": "resistant"},
      {"measurement": "VEGF-induced ERK activation", "setting": "ERK; VEGFlow cells", "value": "inhibited"},
      {"measurement": "ERK activation", "setting": "ERK; resistant cells, bevacizumab 5 mg/ml", "value": "unable to inhibit ERK activation"}
    ]}
  ]
}
